Data from US10280156B2, “Heteroaromatic chalcone derivatives and their medical use” (Medizinische Universität Wien, priority 2014, dated 2019).

Key:
M2-10B4 = assay: Viability test on mouse fibroblast cell line M2-10B4, 48 h; format: cell-based; settings: 48 h incubation, mouse fibroblast cell line
Experimental: (§1) All experiments with hematological cell lines were done using phenol red-free RPMI 1640+L-glutamine (PAA Laboratories) supplemented with 1% PenStrep and 10% FBS gold, except experiments with OCI-Ly7 which were carried out in Gibco IMEM+GlutaMAX and 25 mM HEPES containing 20% FBS gold and 1% PenStrep. Cells were incubated in triplicates with increasing concentrations of the compounds for 48 h, changes in viability were determined using the cell proliferation and cytotoxicity assays EZ4U (Biomedica Group, Austria) and CellTiter-Blue Cell Viability Assay (Promega, Madison, Wis., USA) following instructions of the manufacturers. IC50 values were calculated from two independent experiments using GraphPad Prism 5 software.
Structurally seen, the small molecule compound 1 represents a typical chalcone scaffold. It is characterized by an ortho-ethoxy-substituted phenyl part as ring A and a 2-naphthyl moiety symbolizing ring B. The focus of the present study was to guide the systematic identification of a growth inhibitor with specificity to neoplastic cells, as cytotoxicity towards healthy cells is mostly associated with adverse effects, which can be related to morbidity and mortality of the patient (Milligan D W et al. Brit J Haematol 2006, 135, 450-474). To discriminate in vitro between structural elements necessary for potent cytotoxicity towards tumor cells which, at the same time, clearly show less activity on normal cells, the compounds were additionally tested on the murine bone marrow fibroblast cell line M2-10B4. This cell line is regularly used as feeder layer when cultured with patient cells providing additional support and survival signals in particular in drug screens (Kurtova A V et al. Blood 2009, 114, 4441-4450).
(§2) Initially, compounds were biologically tested in six concentration steps (0.1 μM; 1 μM; 5 μM; 10 μM; 50 μM; and 100 μM) using the CellTiter-Blue Cell Viability Assay (Promega, Madison, Wis., USA) and an incubation time of 48 hours. […] IC50 values were calculated from at least two independent experiments with 3 replicates each. In order to evaluate the biologic activity of the new compounds, cytotoxicity was compared to that of fludarabine, an already approved drug for the treatment of various B-cell malignancies. […] Differences in IC50 values for the different cell types can be explained by the biological and genetic particularities of each subtype of B-cell Non-Hodgkin lymphoma (Stacchini A et al. Leukemia Res 1999, 23, 127-136; Sambade C et al. Int J Cancer 2006, 118, 555-563; Chang H et al. Leukemia lymphoma 1995, 19, 165-171; Tweeddale M E et al. Blood 1987, 69, 1307-1314; Tweeddale M et al. Blood 1989, 74, 572-578).

MEC1 = assay: Viability test (CellTiter-Blue/EZ4U) on MEC1 cells, 48 h; format: cell-based, human; settings: Homo sapiens, MEC1, 48 h, 48 h incubation; nd = no significant cytotoxic activity up to 100 μM
Experimental: (§3) JURKAT and CCRF-CEM (T-cell acute lymphoblastic leukemia), HL60 and K562 representing acute and chronic myeloid leukemia, respectively, the chronic lymphocytic leukemia cell line MEC-1, and the diffuse large B-cell lymphoma cell line U-2940 were cultured in Gibco RPMI 1640+GlutaMAX (Life Technologies, Carlsbad, Calif., USA) supplemented with 10% fetal bovine serum gold (FBS gold; PAA Laboratories, Pasching, Austria) and 1% PenStrep (100 U/ml penicillin and 100 μg/ml streptomycin; PAA Laboratories), and maintained at 37° C. in humidified atmosphere with 5% CO2. The diffuse large B-cell lymphoma cell line OCI-LY7 was cultured in Gibco IMDM+GlutaMAX and 25 mM HEPES (Life Technologies) containing 20% FBS gold and 1% PenStrep.
as §1, §2

U-2940 = assay: Viability test on U-2940 cells, 48 h; format: cell-based, human; settings: 48 h incubation, nd = no significant cytotoxic activity up to 100 μM
Experimental: as §3, §1, §2

OCI-Ly7 = assay: Viability test on OCI-Ly7 cells, 48 h; format: cell-based, human; settings: Homo sapiens, OCI-Ly7, 48 h, 48 h incubation; nd = no significant cytotoxic activity up to 100 μM
Experimental: as §3, §1, §2

Compound	IC50 (M2-10B4; Mus musculus, M210B4, 48 h) [µM]	melting point [°C]	IC50 (MEC1) [µM]	IC50 (U-2940; Homo sapiens, U-2940, 48 h) [µM]	IC50 (OCI-Ly7) [µM]	IC50 (U-2940) [µM]	IC50 (M2-10B4) [µM]
CC(C)Oc1ccccc1C(=O)/C=C/c1ccc2ccccc2c1 [Compound 5]	> 100	82 to 85	1.17	11.1	0.15		
CCOc1ccccc1C(=O)/C=C/c1ccc2ccccc2c1 [Compound 1, 3-(2-Napthyl)-1-(2-ethoxyphenyl)-2-propen-1-one]	7.8	96 to 97	0.06	2.43	0.06	4.43	
CCOc1ccccc1C(=O)/C=C/c1ccc2sccc2c1 [Compound 13, 3-(5-Benzo[b]thienyl)-1-(2-ethoxyphenyl)-2-propen-1-one]	21.1	104 to 106	0.34	9.05	0.34		
CCOc1ccccc1C(=O)/C=C/c1ccc2c(c1)OCO2 [Compound 9, 3-(1,3-Benzodioxol-5-yl)-1-(2-ethoxyphenyl)-2-propen-1-one]	> 100	65 to 70	1.1	9.49	0.13		
CCOc1ccccc1C(=O)/C=C/c1cccc2ccccc12 [Compound 10, 1-(2-Ethoxyphenyl)-3-(1-naphthyl)-2-propen-1-one]	14.1	109 to 110	1.9	7.37	1.48		17.1
